Like-named read-outs stand apart in the source and are kept apart here. Positions of bridges follow the written chain, without caps; N, C: chain ends. No end group written: not given here.

Data on nine compounds can be found in paper PMC6838683, “Discovery of Human Signaling Systems: Pairing Peptides to G Protein-Coupled Receptors” (Cell, 2019).

The test system of one test is GPR32. In words: Repeat of proposed literature pairing (mass redistribution and/or internalization). The format is cell-based, human. The text has this:
(§1) DMR assays provide a single integrated readout of ligand-dependent cellular response, utilizing an optical biosensor in specialized microplates to detect wavelength shifts of reflected light as it passes through the biosensor and the lower portion of the cell (∼150-200 nm). As a signal pathway agnostic approach, DMR assays are well-suited to the study of GPCRs ([Fang et al., 2008], [Schröder et al., 2011]). The mass redistribution response (Δ picometer (pm)) likely reflects a number of intracellular events, including cytoskeletal rearrangement, protein trafficking and receptor internalization. Orphan receptor-expressing cells were gently washed twice with assay buffer (HBSS with 1 mM CaCl2, 1 mM MgCl2, 20 mM HEPES, 0.01% pluronic F-68, pH 7.4) containing 0.1% DMSO and cells were equilibrated for 90 min at 22°C in the EPIC Benchtop (BT) System (Corning) to establish a stable DMR signal. After 3-5 min baseline recordings, peptides (10 μM) were added in duplicate wells using an electronic 384-channel Viaflo pipette (Integra Biosciences, Switzerland) and DMR responses were measured for 60 min at 22°C. 100 nM norepinephrine was included as an internal assay control to assess the cellular DMR response via endogenously-expressed adrenoceptors in the TREx 293 cells. Real-time data were processed using the BT to column converter MS-Excel macro (Corning) and analyzed in GraphPad Prism 7.0. DMR recordings in peptide screening experiments were buffer and solvent corrected and the area under the curve (AUC) was quantified. For subsequent validation experiments, peptides were diluted in assay buffer containing 0.1% DMSO and DMR assays were performed as above. […] Data represent mean ± standard error of the mean (SEM) from at least 3 biologically independent experiments.
(§2) A TR-FRET real-time internalization assay was used to examine peptide-dependent changes in orphan receptor localization as described previously ([Foster and Bräuner-Osborne, 2018]). Surface-expressed SNAP-tagged receptors were labeled with a cell-impermeable luminescent terbium cryptate (100 nM SNAP Lumi4-Tb; Cisbio, France) for 1 hr at 37°C. Cells were washed to remove excess terbium and incubated with fluorescein-O-acetic acid (100 μM; Sigma Aldrich) for 5 min at 37°C. Peptides were added as for DMR assays, and internalization responses were recorded for 60 min at 37°C using an EnVision 2104 Multimode plate reader (PerkinElmer). 100 nM GLP-1 was used as a positive control for SNAP-GLP1R internalization. Real-time internalization responses were calculated based on TR-FRET (excitation 340 nm; emission 520 nm and 615 nm), and were expressed as the ratio between donor (terbium) and acceptor (fluorescein) emission. For peptide screening analysis (both DMR and internalization assays), we calculated the area under the curve from the real-time traces. As the magnitude of the responses was variable between orphan receptor targets, particularly for the SNAP-tag based internalization assay where the signal is dependent on receptor surface expression, the AUC values were normalized to their respective plate averages and expressed as fold change. Validation experiments for receptor internalization were performed as above. Internalization data was processed in MS-Excel and area under the curve was used to generate concentration-response curves using GraphPad Prism 7.0. Data represent mean ± standard error of the mean (SEM) from at least 3 biologically independent experiments.

For the next test, the system named is human GPCRs. The arrangement: method as in Guide to Pharmacology database. As to conditions: max reported value, ref Guide to Pharmacology database, cited from earlier work. The text has this: Supplement mmc1.xlsx, sheet "HumanGPCRLigands" | column: pKi_value; pKd_value; pEC50_value; pIC50_value
The test system of the next test is GPR83. In words: Repeat of proposed literature pairing (mass redistribution and/or internalization). The format is cell-based, human.
From the text: as §1, §2

Test [1] addresses T1, GPR15 (Homo sapiens, UniProt P49685).
T1 construct: hIL-2Ra signal peptide (N); expressed in transfected cells
T1 sequence (P49685 2-360 limits assumed): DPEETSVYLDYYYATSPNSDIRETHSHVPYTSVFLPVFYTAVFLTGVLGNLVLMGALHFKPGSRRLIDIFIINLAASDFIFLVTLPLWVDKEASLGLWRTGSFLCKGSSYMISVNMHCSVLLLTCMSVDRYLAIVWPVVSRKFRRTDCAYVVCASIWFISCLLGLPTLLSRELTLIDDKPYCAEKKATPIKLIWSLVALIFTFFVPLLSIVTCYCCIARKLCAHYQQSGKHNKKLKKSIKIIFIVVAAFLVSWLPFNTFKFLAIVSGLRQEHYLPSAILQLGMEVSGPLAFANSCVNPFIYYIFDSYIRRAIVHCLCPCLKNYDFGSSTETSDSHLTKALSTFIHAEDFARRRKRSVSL
In words: Dynamic mass redistribution (DMR), concentration-response. The format is cell-based. To be noted: receptor GPR15; mean, SEM and n (3); read-out: DMR assays pEC50 (converted). The procedure: (§3) 48 hr prior to parallel assaying, SNAP-tagged oGPCR cells were plated (10,000 cells/well) in fibronectin-coated 384-well Epic biosensor microplates (Corning) and poly-D-lysine coated white 384-well plates (for internalization assays). SNAP- GLP-1 receptor was plated alongside orphan receptor cells as an internal assay control for internalization assays. Receptor-expression was induced with 0.1 μg/ml doxycycline.
as §1

Test [2] deals with T1, GPR15. In words: cAMP inhibition (Gi/o), HTRF with forskolin. The format is cell-based. To be noted: receptor GPR15, mean, SEM and n (4). The procedure:
Peptide-dependent second messenger responses were measured using commercially available HTRF-based IP1 and cAMP kits (Cisbio) as described previously ([Nørskov-Lauritsen et al., 2014]). Receptor expression was induced for 48 hr with 0.1 μg/ml doxycycline in 10 cm dishes. For IP1 measurements (to measure Gq/11), 2,500 cells/well were mixed with ligands in triplicate wells in low volume white 384-well plates at 37°C for 30 min. For cAMP assays, 2,500 cells/well were added in triplicate wells in white 384-well plates in the absence or presence of 3 μM forskolin (to measure Gs and Gi/o activation respectively). 100 μM IBMX was included to prevent cAMP degradation during 30 min stimulation on a plate shaker at room temperature. For both assays, HTRF was measured using an EnVision 2104 Multimode plate reader (PerkinElmer).

Test [3] deals with T1, GPR15. In words: Real-time receptor internalization (TR-FRET), concentration-response. The format is cell-based. To be noted: mean, SEM and n (3), read-out: Internalization assays pEC50 (converted). The procedure:
as §3, §2

For another test, the system named is GPR19. In words: Repeat of proposed literature pairing (mass redistribution and/or internalization). The format is cell-based, human.
A further test concerns GPR151. The test is described as above. The format is cell-based, human.
From the text: as §1, §2

The subject of another test is P2RY10. The description is as above. The format is cell-based, human. As to conditions: for receptor-dependent activation by proposed ligand, P2RY10: repeat of literature pairing across multiple assays, Figure S7A, Tables S5 and S7.
From the text: as §1, §2

Another test deals with GPR37L1. Described as above. The format is cell-based, human.
From the text: as §1, §2

The subject of the next test is GPR37. The description is as above. The format is cell-based, human.
From the text: as §1, §2

Setting [4] is: repeat of literature pairing, Figure S7A, Tables S5 and S7.
The mark [5] stands for this setting: receptor galr1_human (GALR1, P47211).
The mark [6] stands for this setting: receptor galr2_human (GALR2, O43603).
Setting [7] is: receptor galr3_human (GALR3, O60755).

On to `CC/C=C\C[C@H](O)/C=C/C=C\C=C\C=C\[C@@H](O)[C@@H](O)C/C=C\CCC(=O)O` [RvD1], for which the “Lipid pairing for orphan receptor GPR32 (confirmed/unconfirmed)” value in the test with GPR32 (repeat of literature pairing) is “Unconfirmed lipid pairings for orphans”.

With `CC/C=C\C[C@H](O)/C=C/C=C\C=C\C=C\[C@@H](O)[C@@H](O)C/C=C\CCC(=O)O` [resolvin D1], the pEC50_value in the test on human GPCRs (receptor fpr2_human (FPR2, P25090)) is listed as 11.9; in the test with human GPCRs (receptor gpr32_human (GPR32), Class A orphans), 11.1. The “receptor-dependent activation by proposed ligand, GPR32” value in the test on GPR32 (setting [4]) is “no activity”. Moreover, in the test on GPR32 (target GPR32), the “Comment (response in DMR / internalization assays)” value is recorded as “No response in any assay”. The “Active in DMR/internalization” value in the test on GPR32 (target GPR32, reported ligand tested on receptor-expressing cell line) is listed as “No”.

As for “PEN: neuroendocrine peptide PEN, proposed GPR83 ligand (AADHDVGSELPPEGVLGALLRV)”, the “Peptide pairing for orphan receptor GPR83 (confirmed/unconfirmed)” value in the test with GPR83 (repeat of literature pairing) is recorded as “Confirmed peptide pairings for orphans”. In the test with GPR83 (repeat of literature pairing across multiple assays, Figure S7A, Tables S5 and S7), the “receptor-dependent activation by proposed ligand, GPR83” value is recorded as “selective receptor-dependent activation”. Besides, in the test with GPR83 (target GPR83), the “Comment (response in DMR / internalization / Tango assays)” value was “PEN is included in library (peptide 146) and was purchased separately. Active in DMR, inactive in internalization, but also active in Tango”. In the test on GPR83 (target GPR83, reported ligand tested on receptor-expressing cell line), the “Active in DMR/internalization” value is given as “Yes (DMR)”.

Consider “TRLCCHRVPSPNSTNLKGHHVRLCKPCKLEPEPRLWVVPGALPQV (disulfide 4-27, 5-24) [64.3 (Phoenix)]”, for which the EC50 at GPR15 [1] was 0.0132 µM; on GPR15 [2] (read-out: cAMP accumulation assays pEC50 (converted)), 0.0257 µM; at GPR15 [3], 0.447 µM. Besides, the Emax on GPR15 [2] (read-out: cAMP accumulation assays Emax (% FSK)) is 40.8%.

For “adropin (CHSRSADVDSLSESSPNSSPGPCPEKAPPPQKPSHEGSYLLQP; not fully specified; cysteine pairing not given here; UniProt Q6UWT2 34-76, looked up) [proposed GPR19 ligand]”, the “Peptide pairing for orphan receptor GPR19 (confirmed/unconfirmed)” value with GPR19 (repeat of literature pairing) is “Unconfirmed peptide pairings for orphans”. Further, the “receptor-dependent activation by proposed ligand, GPR19” value with GPR19 (setting [4]) is recorded as “no activity”. The “Comment (response in DMR / internalization assays)” value in the test on GPR19 (target GPR19) is given as “No response in any assay”. Besides, the “Active in DMR/internalization” value in the test on GPR19 (target GPR19, reported ligand tested on receptor-expressing cell line) is on record as “No”.

As to galanin [reference compound], in the test on human GPCRs (setting [5]), the pIC50_value was 9.9 and the pKi_value was 10.5. For the same compound, in the test on human GPCRs (setting [6]), the pEC50_value is 9.1, the pIC50_value is listed as 9.3 and the pKi_value was 9.1. For the same compound, in the test with human GPCRs (setting [7]), the pIC50_value was 7.1 and the pKi_value is listed as 7.2. Further, the “Peptide pairing for orphan receptor GPR151 (confirmed/unconfirmed)” value in the test on GPR151 (repeat of literature pairing) is given as “Unconfirmed peptide pairings for orphans”. In addition, the “receptor-dependent activation by proposed ligand, GPR151” value with GPR151 (setting [4]) is on record as “no activity”. Moreover, the “Comment (response in DMR / internalization assays)” value in the test on GPR151 (target GPR151) is “Galanin is included in library (peptide 177) and was purchased separately. No response in any assay”. Moreover, the “Active in DMR/internalization” value in the test with GPR151 (target GPR151, reported ligand tested on receptor-expressing cell line) was “No”.

With lysophosphatidic acid, the “receptor-dependent activation by proposed ligand, P2RY10” value in the test on P2RY10 was “no activity”.

With lysophosphatidylserine [LPS], the pEC50_value is listed as 7.1 in the test on human GPCRs (receptor gp174_human (GPR174), Class A orphans) and 6.9 in the test with human GPCRs (receptor gpr34_human (GPR34), Class A orphans). The “Lipid pairing for orphan receptor P2RY10 (confirmed/unconfirmed)” value in the test on P2RY10 (repeat of literature pairing) is reported as “Confirmed lipid pairings for orphans”. Also, the “receptor-dependent activation by proposed ligand, P2RY10” value with P2RY10 is recorded as “selective receptor-dependent activation”; with P2RY10 (listed as lysophosphatidylserine) it was “marginal”.

For prosaptide, in the test on GPR37L1 (repeat of literature pairing), the “Peptide pairing for orphan receptor GPR37L1 (confirmed/unconfirmed)” value was “Unconfirmed peptide pairings for orphans”. The “receptor-dependent activation by proposed ligand, GPR37L1” value with GPR37L1 (setting [4]) is “no activity”. The “Comment (response in DMR / internalization assays)” value in the test on GPR37L1 (target GPR37L1) and in the test on GPR37 (target GPR37) was “No response in any assay” each time. For the same compound, the “Active in DMR/internalization” value in the test with GPR37L1 (target GPR37L1, reported ligand tested on receptor-expressing cell line) is reported as “No”; in the test on GPR37 (target GPR37, reported ligand tested on receptor-expressing cell line) it was “No”. Moreover, the “Peptide pairing for orphan receptor GPR37 (confirmed/unconfirmed)” value with GPR37 (repeat of literature pairing) was “Unconfirmed peptide pairings for orphans”. Also, the “receptor-dependent activation by proposed ligand, GPR37” value with GPR37 (setting [4]) was “no activity”.
